pIC50, pKd: −log10 of the molar value. “And” between values parts separate entries of the source, which are not always exact repeats. Identical values can stand only once. Like-named read-outs stand apart in the source and are kept apart here.
Experiments:
[1] = target: T1, CD73 expressed on the MDA-MB-231 cell surface (Homo sapiens, UniProt P21589); assay: Cell-based CD73 enzyme inhibition assay using MDA-MB-231 cells (CellTiter-Glo)
T1 construct: host or cells: MDA-MB-231
T1 sequence (P21589 27-549): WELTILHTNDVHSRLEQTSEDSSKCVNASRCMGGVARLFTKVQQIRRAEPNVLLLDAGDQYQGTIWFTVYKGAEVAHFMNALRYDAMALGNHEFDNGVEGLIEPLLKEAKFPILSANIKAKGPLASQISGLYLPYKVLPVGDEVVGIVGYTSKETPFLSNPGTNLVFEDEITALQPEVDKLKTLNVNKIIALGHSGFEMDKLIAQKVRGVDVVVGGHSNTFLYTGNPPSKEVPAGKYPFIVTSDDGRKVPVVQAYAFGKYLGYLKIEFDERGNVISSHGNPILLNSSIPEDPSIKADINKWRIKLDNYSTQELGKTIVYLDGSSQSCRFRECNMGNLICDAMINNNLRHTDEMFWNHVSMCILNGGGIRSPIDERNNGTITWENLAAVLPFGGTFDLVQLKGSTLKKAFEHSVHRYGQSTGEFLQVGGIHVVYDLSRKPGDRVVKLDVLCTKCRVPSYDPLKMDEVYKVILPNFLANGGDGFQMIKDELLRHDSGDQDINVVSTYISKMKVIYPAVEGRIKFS
Protocol: The cell-based CD73 enzyme inhibition assay was performed essentially as described above for the cell-free assay, with the following modifications. MDA-MB-231 human breast adenocarcinoma cells (ATCC CRM-HTB-26) were seeded at 2×10^4 cells/well/100 μL into 96-well tissue culture-treated plates (Corning Costar cat no. 3596) and incubated overnight at 37° C., 5% CO2. Cells were incubated with test inhibitors (50 μL/well) and AMP (25 μL/well, final 400 μM) for 3 h at 37° C., 5% CO2 to allow for interaction with CD73 expressed on the MDA-MB-231 cell surface. The 96-well plate was then centrifuged at 125×g for 5 min at room temperature and ATP (25 μL/well, 100 μM final) was combined with supernatant (25 μL/well) in a white opaque 96-well plate (Corning Costar cat no. 3912). The CD73 activity in the supernatant was quantified using the CellTiter-Glo kit (Promega cat no. G7571). Percent CD73 inhibition (y-axis) versus log10 inhibitor concentration (x-axis) were plotted using GraphPad Prism Version 8 and IC50's calculated using nonlinear regression analysis (Sigmoidal, 4 PL).
An additional assay was performed to test the effect of linker length on IC50 potency using the cell-based CD73 enzyme inhibition assay. Conjugate 194, Conjugate 195, and Conjugate 196 have the same small molecule targeting moiety (Int) as Conjugate 172c (batch 9) but with varying linker lengths.

CD73 on human PBMCs = target: T2, CD73 on human PBMCs (Homo sapiens, UniProt P21589); assay: CD73 enzyme inhibition assay with human PBMCs (PiColorLock); assay type: cell-based; conditions: AMP 100 μM; for IC50: three unique PBMC donors; for pIC50: human PBMCs
T2 construct: 72400 (T cells); host or cells: human PBMCs / human T cells
T2 sequence (P21589 27-549): T1 sequence (P21589 27-549)
Protocol: The cell-based CD73 enzyme inhibition assay was performed in a 96-well plate format using the PiColorLock phosphate assay kit in accordance with the manufacturer's instructions (Abcam cat no. 270004). 4T1 mouse cells are a model for stage IV human breast cancer (ATCC CRL-2539) and human peripheral blood mononuclear cells (PBMCs; StemCell Technologies cat no. 70025) from three different donors were assayed. 4T1 cells were washed three times with a phosphate-free CD73 buffer (Lawson et al., 2020), detached from tissue-culture flasks using a cell scraper, and seeded at 5×10^3 cells/well into 96-well tissue culture-treated plates. Human PBMCs were washed three times with phosphate-free CD73 buffer at 125×g for 10 min at room temperature and seeded at 1×10^5 cells/well into 96-well tissue culture-treated plates. Test articles were tested from 0.001 nM to 1,000 nM (4T1 cells) or 0.0001 nM to 100 nM (PBMCs) and incubated with cells for 30 min at 37° C., 5% CO2. AMP (100 μM final concentration) was added to cells and test articles, and the reaction incubated for 3 h and 24 h at 37° C., 5% CO2. The conversion of AMP to adenosine and phosphate in cell-free supernatant was quantified using the PiColorLock kit. Colorimetric detection reagent was added and the phosphate production was measured by reading the absorbance at 635 nm with the EnSpire multimode plate reader (PerkinElmer). Cells without test article (positive control) were included on each plate. Control wells without test article and cells (background) were subtracted from all wells. Percent CD73 inhibition versus inhibitor concentration was plotted using GraphPad Prism Version 8 and IC50's calculated using nonlinear regression analysis (Sigmoidal, 4 PL).
The cell-based CD73 enzyme inhibition assay was performed in a 96-well plate format using the Phosphate Assay Kit—PiColorLock™ in accordance with the manufacturer's instructions (cat no. 270004, Abcam). AMP is enzymatically converted by CD73 to adenosine and phosphate. Therefore, adenosine concentrations can be inferred from phosphate concentrations in 1:1 ratio. Both EMT6 mouse mammary carcinoma cells (ATCC CRL-2755) and human peripheral blood mononuclear cells (PBMC; Stemcell Technologies cat no. 70025, lot no. 2202401007) were assayed. The EMT6 cells were washed three times with a phosphate free CD73 buffer, detached from flasks using a cell scraper, and seeded at 3×10^3 cells/well in 100 μL into 96-well tissue culture-treated plates. Human PBMC cells were washed three times by suspending in phosphate free CD73 buffer and pelleting in a centrifuge at 125×g for 10 min at room temperature and seeded at 5×10^5 cells/well in 100 μL into 96-well tissue culture-treated plates. […] AMP was added at 100 μM and cells, test articles, and AMP were incubated together for 3 h and 24 h at 37° C., 5% CO2. The CD73 activity in the supernatant was quantified using the PiColorLock Phosphate assay kit. Colorimetric detection reagent was added and the free phosphate from the CD73 reaction was measured by reading the absorbance at 635 nm using the EnSpire multimode plate reader (PerkinElmer). Wells without test inhibitor (CD73 positive control) were included on each plate. Wells without test inhibitor and cells (background) were subtracted from all wells. The percent CD73 inhibition versus inhibitor concentration was plotted using GraphPad Prism Version 8 and IC50's calculated using nonlinear regression analysis (Sigmoidal, 4 PL).

human CD73/NT5E protein = target: T3, human CD73/NT5E protein (Homo sapiens, UniProt P21589); assay: Human CD73 binding by surface plasmon resonance; conditions: SPR, Biacore 8k; DFCs and mAbs on His-captured CD73, small molecules on NTA-captured CD73 (Table 14)
T3 construct: purchased Acro Biosystems CD3-H52H7
T3 sequence (P21589 27-549): T1 sequence (P21589 27-549)
Protocol: Kinetic binding of drug-Fc conjugates (DFCs) and comparator monoclonal antibodies (mAbs) to human CD73 by surface plasmon resonance (SPR) was performed by Acro Biosystems using the Biacore 8 k system (Cytiva). The anti-histidine antibody included in the His Capture Kit, type 2 (cat no. 29234602, Cytiva) was diluted to 50 μg/mL in immobilization buffer (10 mM sodium acetate, pH 4.5; cat no. 29234602, Cytiva) and immobilized at a flow rate of 10 μL/min for 420 s to 10,000 RU on a Series S Sensor Chip CM5 (cat no. 29149603, Cytiva). […] Sensorgrams were recorded by flowing 2-fold dilutions of analyte (DFC or mAb) in running buffer at concentrations ranging from 125 nM to 0.977 nM. Binding was measured at a flow rate of 30 μL/min, with a 90 s association phase and 120 s dissociation phase. […] Binding kinetics were analyzed using the data analysis software. […]
Binding of small molecule benchmark inhibitors to human CD73 by SPR was performed by Acro Biosystems using the Biacore 8 k system (Cytiva). […] Sensorgrams were recorded by flowing 2-fold dilutions of DFC analytes in running buffer at concentrations ranging from 15.625 nM to 0.977 nM. Binding was measured at a flow rate of 30 μL/min, with a 120 s association phase and 300 s dissociation phase. […] Binding kinetics were analyzed using the data analysis software. […]

[2] = MDA-MB-231 cells, AMP 400 μM, 3 h, Table 29 experiment
[3] = read-out: 3 h median IC50 [nM] (range), 3 h
[4] = 24 h, read-out: 24 h median IC50 [nM] (range)

pIC50 [1, 2] | pIC50 ([1]; additional assay on linker length, Table 30 experiment) | IC50 (CD73 on human PBMCs; [3]) | IC50 (CD73 on human PBMCs; [4]) | pKd (human CD73/NT5E protein) | pIC50 (CD73 on human PBMCs; 24 h (Table 18), read-out: 24 h IC50) | pIC50 (CD73 on human PBMCs; read-out: 3 h IC50, 3 h (Table 18)) | SMILES
8.43 | 8.40 | 1.45 nM | 2.36 nM | 8.48 |  |  | O=P(O)(O)COC[C@H]1O[C@@H](n2ncc3c(N4CC5(CCc6ccccc65)C4)nc(Cl)nc32)[C@H](O)[C@@H]1O [SHR170008]
9.05 and 9.06 |  | 0.07 nM | 0.15 nM | 9.28 | 9.55 | 10.96 | COC[C@](CO)(OC[C@H]1O[C@@H](n2ncc3c(NC4CCCC4)nc(Cl)nc32)[C@H](O)[C@@H]1O)P(=O)(O)O [OP-5244]

Reference: US20260000781A1, “FC CONJUGATES INCLUDING AN INHIBITOR OF CD73 AND USES THEREOF” (Cidara Therapeutics, Inc., priority 2022, published 2026)
